22 compounds from patent publication US10508120B2, “TYK2 inhibitors and uses thereof” (Nimbus Lakshmi, Inc., priority 2017, dated 2019) can be followed below.

Usually Kd stands for the equilibrium constant for the complex coming apart. Read a high Kd as weaker binding. The term inhibition denotes the change of the read-out against control, counted positive when it falls. What is called IC50 is the concentration at which inhibition is half-maximal.

Assay [1] concerns the target human TYK2 (JH2domain-pseudokinase) (Homo sapiens (Human), UniProt P29597). Nature of the assay: TYK2 JH2 Domain Binding Assay (KINOMEscan). The method, boiled down: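 The construct was human TYK2 G556–D888 fused to the NFkB DNA-binding domain and expressed in HEK293 cells; unpurified extract was incubated with compound and liganded beads for 1 hour at room temperature.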

Assay [2] has as its target Tyk2 kinase domain (DH1) (Homo sapiens (Human), UniProt P29597). Nature of the assay: Tyk2 Radioactive Kinase Assay. It is filed as biochemical. The conditions noted are these: 10 μM compound; 10 μM ATP; read-out: Tyk2 JH1% Inhibition @ 10 μM. The gist of the method: (§1)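 Read-out is percent inhibition from a radioactive kinase reaction, measured with compound at 10 μM.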

The target in assay [3] is JAK2 kinase domain (JH1) (Homo sapiens (Human), UniProt O60674). Nature of the assay: JAK2 Radioactive Kinase Assay. It is filed as biochemical. Particulars: 10 μM compound; 10 μM ATP; read-out: JAK2 JH1% Inhibition @ 10 μM. The method, boiled down: as §1
The target in assay [4] is Tyk2/JAK2 (heterodimeric complex) (Homo sapiens (Human), UniProt P29597). Nature of the assay: IL-12 Induced pSTAT4 in Human PBMC. The format is cell-based. The conditions noted are these: 1.7 ng/mL IL-12. The text has this: The IL-12 Induced pSTAT4 assay evaluates the inhibition of IL-12 induced STAT4 phophorylation mediated by Tyk2/JAK2 (heterodimeric complex).
The target of assay [5] is JAK2/JAK2 homdimeric complex (Homo sapiens (Human), UniProt O60674). Nature of the assay: GM-CSF Induced pSTAT5 in Human PBMC. The format is cell-based. The conditions noted are these: GM-CSF 5 ng/mL for 20 minutes, pSTAT5 by MSD, read-out: PBMC_GMCSF_pSTAT5 IC50.

Bounds are passed on as bounds.

Tyk2/JAK2 (heterodimeric complex), sequence (P29597 whole entry, other chains not shown): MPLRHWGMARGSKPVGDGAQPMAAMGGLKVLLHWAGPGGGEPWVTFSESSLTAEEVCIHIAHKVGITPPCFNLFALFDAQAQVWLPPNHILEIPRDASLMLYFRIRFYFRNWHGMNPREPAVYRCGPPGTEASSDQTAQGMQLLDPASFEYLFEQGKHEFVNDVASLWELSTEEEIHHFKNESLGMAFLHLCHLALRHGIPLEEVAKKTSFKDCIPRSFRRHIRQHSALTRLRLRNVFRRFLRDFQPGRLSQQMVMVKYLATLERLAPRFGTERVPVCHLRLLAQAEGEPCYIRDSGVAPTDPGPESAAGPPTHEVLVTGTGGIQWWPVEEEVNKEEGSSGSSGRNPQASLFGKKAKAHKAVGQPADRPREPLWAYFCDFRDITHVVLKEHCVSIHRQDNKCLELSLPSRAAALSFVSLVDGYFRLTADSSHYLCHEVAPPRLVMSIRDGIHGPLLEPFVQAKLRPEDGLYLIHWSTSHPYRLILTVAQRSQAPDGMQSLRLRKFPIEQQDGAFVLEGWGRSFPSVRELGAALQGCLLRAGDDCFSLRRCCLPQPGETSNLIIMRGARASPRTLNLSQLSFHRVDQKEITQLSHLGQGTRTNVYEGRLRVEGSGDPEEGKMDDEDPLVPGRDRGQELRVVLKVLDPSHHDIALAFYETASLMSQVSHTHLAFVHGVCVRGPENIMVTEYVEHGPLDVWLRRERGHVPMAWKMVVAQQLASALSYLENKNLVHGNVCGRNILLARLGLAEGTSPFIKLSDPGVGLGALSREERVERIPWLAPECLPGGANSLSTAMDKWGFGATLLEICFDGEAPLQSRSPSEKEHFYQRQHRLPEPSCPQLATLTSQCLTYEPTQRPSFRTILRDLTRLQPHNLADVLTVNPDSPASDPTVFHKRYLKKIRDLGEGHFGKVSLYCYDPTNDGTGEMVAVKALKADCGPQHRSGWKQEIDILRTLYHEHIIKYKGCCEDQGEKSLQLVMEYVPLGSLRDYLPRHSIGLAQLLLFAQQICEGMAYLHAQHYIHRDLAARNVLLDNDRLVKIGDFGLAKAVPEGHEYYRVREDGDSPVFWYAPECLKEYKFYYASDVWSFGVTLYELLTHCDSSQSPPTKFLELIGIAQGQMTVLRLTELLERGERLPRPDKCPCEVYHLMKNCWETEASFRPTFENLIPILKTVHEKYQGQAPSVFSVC
human TYK2 (JH2domain-pseudokinase), sequence (P29597 556-888): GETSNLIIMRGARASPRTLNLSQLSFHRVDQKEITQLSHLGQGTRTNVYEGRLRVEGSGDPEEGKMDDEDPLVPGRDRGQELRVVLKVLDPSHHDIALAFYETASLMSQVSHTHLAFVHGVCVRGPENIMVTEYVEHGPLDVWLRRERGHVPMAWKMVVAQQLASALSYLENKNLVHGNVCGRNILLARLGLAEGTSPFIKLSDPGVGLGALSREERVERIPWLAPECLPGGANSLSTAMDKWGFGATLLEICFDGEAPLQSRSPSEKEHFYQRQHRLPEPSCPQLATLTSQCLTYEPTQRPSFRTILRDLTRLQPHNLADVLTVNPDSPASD
JAK2 kinase domain (JH1), sequence (O60674 849-1124): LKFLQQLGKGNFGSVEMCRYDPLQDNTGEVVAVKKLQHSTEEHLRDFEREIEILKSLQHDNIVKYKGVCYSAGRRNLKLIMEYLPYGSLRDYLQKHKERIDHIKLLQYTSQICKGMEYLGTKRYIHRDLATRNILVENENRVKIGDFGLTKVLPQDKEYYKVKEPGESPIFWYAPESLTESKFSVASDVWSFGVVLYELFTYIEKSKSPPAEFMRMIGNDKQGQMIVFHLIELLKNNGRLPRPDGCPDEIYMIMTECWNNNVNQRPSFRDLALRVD
JAK2/JAK2 homdimeric complex, sequence (O60674 whole entry): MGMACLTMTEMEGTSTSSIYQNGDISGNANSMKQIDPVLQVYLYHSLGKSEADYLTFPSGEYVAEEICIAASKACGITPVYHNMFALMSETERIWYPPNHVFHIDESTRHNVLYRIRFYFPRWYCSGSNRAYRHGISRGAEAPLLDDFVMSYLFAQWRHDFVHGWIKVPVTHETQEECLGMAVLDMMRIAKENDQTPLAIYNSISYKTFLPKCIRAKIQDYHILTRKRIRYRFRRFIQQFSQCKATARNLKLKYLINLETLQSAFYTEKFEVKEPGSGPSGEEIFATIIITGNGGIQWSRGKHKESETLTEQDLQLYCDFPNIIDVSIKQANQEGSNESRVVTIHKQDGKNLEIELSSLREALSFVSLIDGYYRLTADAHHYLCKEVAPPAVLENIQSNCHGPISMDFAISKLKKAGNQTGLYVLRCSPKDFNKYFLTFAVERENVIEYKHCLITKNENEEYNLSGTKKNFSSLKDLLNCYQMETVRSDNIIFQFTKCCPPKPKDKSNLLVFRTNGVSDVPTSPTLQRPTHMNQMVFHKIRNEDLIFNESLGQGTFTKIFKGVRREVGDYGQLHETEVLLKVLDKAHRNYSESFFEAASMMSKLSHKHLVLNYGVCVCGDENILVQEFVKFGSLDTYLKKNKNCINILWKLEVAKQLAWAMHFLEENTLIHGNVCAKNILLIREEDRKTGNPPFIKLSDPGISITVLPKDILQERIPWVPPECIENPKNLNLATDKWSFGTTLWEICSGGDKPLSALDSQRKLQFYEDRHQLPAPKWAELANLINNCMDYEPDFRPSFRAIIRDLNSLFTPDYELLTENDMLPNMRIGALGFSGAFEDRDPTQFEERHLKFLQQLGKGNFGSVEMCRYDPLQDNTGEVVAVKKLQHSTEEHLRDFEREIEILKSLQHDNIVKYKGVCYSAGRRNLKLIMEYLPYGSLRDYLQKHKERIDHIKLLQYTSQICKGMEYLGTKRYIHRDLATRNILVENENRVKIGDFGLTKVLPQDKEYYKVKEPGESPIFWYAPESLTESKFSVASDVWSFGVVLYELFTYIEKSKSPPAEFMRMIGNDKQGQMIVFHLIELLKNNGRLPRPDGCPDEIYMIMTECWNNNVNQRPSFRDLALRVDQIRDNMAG
JAK2/JAK2 homdimeric complex, sequence (P32927 17-897 partner): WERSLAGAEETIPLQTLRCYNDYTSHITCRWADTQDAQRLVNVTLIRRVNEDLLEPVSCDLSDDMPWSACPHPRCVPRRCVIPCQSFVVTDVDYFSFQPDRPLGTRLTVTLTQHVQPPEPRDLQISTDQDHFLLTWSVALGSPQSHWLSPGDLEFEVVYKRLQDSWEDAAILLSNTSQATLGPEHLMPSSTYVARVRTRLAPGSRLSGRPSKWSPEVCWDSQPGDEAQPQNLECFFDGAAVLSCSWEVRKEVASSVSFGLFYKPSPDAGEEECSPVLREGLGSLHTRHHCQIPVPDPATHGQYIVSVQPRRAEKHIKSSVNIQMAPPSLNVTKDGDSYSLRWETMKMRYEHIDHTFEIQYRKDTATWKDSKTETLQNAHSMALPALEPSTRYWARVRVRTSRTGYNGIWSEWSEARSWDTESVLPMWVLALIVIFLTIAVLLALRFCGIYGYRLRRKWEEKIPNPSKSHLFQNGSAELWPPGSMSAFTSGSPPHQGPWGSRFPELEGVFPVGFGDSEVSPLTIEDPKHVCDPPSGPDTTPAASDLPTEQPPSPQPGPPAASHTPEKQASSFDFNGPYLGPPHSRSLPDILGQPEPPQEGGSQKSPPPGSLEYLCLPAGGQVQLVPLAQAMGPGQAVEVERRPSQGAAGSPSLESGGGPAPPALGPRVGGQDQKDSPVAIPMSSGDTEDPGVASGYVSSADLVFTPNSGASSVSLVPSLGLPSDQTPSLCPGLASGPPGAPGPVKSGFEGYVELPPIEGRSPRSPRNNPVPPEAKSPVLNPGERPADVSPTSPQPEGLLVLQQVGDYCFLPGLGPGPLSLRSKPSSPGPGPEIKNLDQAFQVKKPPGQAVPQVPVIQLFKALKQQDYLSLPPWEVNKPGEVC
Tyk2 kinase domain (DH1), sequence (P29597 897-1176): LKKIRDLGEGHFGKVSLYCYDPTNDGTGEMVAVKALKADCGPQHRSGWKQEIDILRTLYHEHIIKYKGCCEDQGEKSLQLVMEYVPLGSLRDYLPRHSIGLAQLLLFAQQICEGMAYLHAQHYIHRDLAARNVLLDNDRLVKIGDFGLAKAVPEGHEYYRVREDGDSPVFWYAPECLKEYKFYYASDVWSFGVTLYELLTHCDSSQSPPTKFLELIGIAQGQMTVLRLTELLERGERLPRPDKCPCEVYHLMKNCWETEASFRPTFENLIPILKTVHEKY

In turn, `CNc1cc(Nc2cccn([C@H]3[C@@H]4COC[C@@H]43)c2=O)nc2c(C(=O)N[C@@H]3C[C@@H]3F)cnn12` [I-811] displayed a Kd in assay [1] of less than 0.2 nM. The inhibition at 10 µM in assay [2] and in assay [3] was less than 50% throughout. Further, the IC50 in assay [4] is less than 100 nM; in assay [5] it was greater than 50000 nM.

`CNc1cc(Nc2cc(Cl)cn([C@@H]3CCCN(C)C3)c2=O)nc2c(C(=O)NC3CC3)cnn12` [I-819] came in with a dissociation constant (Kd) in assay [1] of less than 0.2 nM. The inhibition at 10 µM in assay [2] and in assay [3] was less than 50% each time. Besides, the results for the IC50 in assay [4] and in assay [5] were less than 100 nM and greater than 50000 nM, respectively.

On to `CNc1cc(Nc2cc(Cl)cn([C@H]3CCCN(C)C3)c2=O)nc2c(C(=O)NC3CC3)cnn12` [I-820], for which the Kd in assay [1] is less than 0.2 nM. Also, the inhibition at 10 µM in assay [2] and in assay [3] was less than 50% throughout. Moreover, the results for the IC50 in assay [4] and in assay [5] were less than 100 nM and greater than 12500 nM, respectively.

In assay [1], `CNc1cc(Nc2cc(Cl)cn(C3CCOCC3)c2=O)nc2c(C(=O)N[C@@H]3CC[C@H]3O)cnn12` [I-825] had a Kd of less than 0.2 nM. Besides, the inhibition at 10 µM in assay [2] and in assay [3] was less than 50% in each case. Further, the IC50 in assay [4] was less than 100 nM; in assay [5], greater than 50000 nM.

In turn, `CNc1cc(Nc2cccc(N3CCO[C@]4(CCOC4)C3)n2)nc2c(C(=O)NC3CC3)cnn12` [I-827] displayed a Kd in assay [1] of less than 0.2 nM. Further, the inhibition at 10 µM in assay [2] and in assay [3] was less than 50% each time. The IC50 in assay [4] was 100 to 500 nM; in assay [5] it was greater than 50000 nM.

Compound `CNc1cc(Nc2cccn([C@H]3CC[C@H](OC)CC3)c2=O)nc2c(C(=O)NC[C@H](C)CO)cnn12` [I-829] registered a Kd in assay [1] of less than 0.2 nM. Also, the inhibition at 10 µM in assay [2] and in assay [3] was less than 50% throughout. The 50% inhibitory concentration (IC50) in assay [4] was less than 100 nM; in assay [5], greater than 50000 nM.

For the compound `CNc1cc(Nc2cccn([C@@H]3CCC[C@H](OC)C3)c2=O)nc2c(C(=O)N[C@@H]3C[C@@H]3F)cnn12` [I-840], the Kd in assay [1] is less than 0.2 nM. The inhibition at 10 µM in assay [2] and in assay [3] was less than 50% each time. In addition, the IC50 in assay [4] is less than 100 nM; in assay [5], greater than 50000 nM.

Regarding `CNc1cc(-c2cn(C(C)C)c3ncccc23)nc2c(C(=O)N[C@@H]3COC[C@@H]3O)cnn12` [I-842, N-((3R,4R)-4-hydroxytetrahydrofuran-3-yl)-5-(1-isopropyl-1H-pyrrolo[2,3-b]pyridin-3-yl)-7-(methylamino)pyrazolo[1,5-a]pyrimidine-3-carboxamide], the Kd in assay [1] was less than 0.2 nM. Besides, the inhibition at 10 µM in assay [2] and in assay [3] was less than 50% throughout. For the same compound, the IC50 in assay [4] is less than 100 nM; in assay [5] it was greater than 50000 nM.

For the compound `CNc1cc(Nc2cccn(C3CCN(CCF)CC3)c2=O)nc2c(C(=O)NCC(C)(C)CO)cnn12` [I-847], in assay [1], the Kd is less than 0.2 nM. Further, the inhibition at 10 µM in assay [2] and in assay [3] was less than 50% each time. The values for the IC50 in assay [4] and in assay [5] were 100 to 500 nM and greater than 50000 nM, respectively.

As to `CNc1cc(Nc2cccn(C3CCCN(CCF)C3)c2=O)nc2c(C(=O)N[C@@H]3C[C@@H]3F)cnn12` (some centres unmarked) [I-849], the Kd in assay [1] is less than 0.2 nM. Further, the inhibition at 10 µM in assay [2] and in assay [3] was less than 50% in each case. In addition, the values for the IC50 in assay [4] and in assay [5] were 100 to 500 nM and greater than 50000 nM, respectively.

As to `CNc1cc(Nc2cc(Cl)cn([C@H]3CCCN(C)C3)c2=O)nc2c(C(=O)N[C@@H]3C[C@@H]3F)cnn12` [I-854], the Kd in assay [1] was less than 0.2 nM. Moreover, the inhibition at 10 µM in assay [2] and in assay [3] was less than 50% throughout. Also, the figures for the IC50 in assay [4] and in assay [5] were less than 100 nM and greater than 50000 nM, respectively.

In the case of `CNc1cc(Nc2cccc(-c3cn(C)nc3F)n2)nc2c(C(=O)N[C@@H]3C[C@@H]3F)cnn12` [I-860], the Kd in assay [1] was less than 0.2 nM. In addition, the inhibition at 10 µM in assay [2] and in assay [3] was less than 50% in each case. The values for the IC50 in assay [4] and in assay [5] were less than 100 nM and greater than 50000 nM, respectively.

On to `CNc1cc(Nc2cc(Cl)cn(C3CCN(C)CC3)c2=O)nc2c(C(=O)NC3CC3)cnn12` [I-883], for which, in assay [1], the Kd is less than 0.2 nM. Besides, the inhibition at 10 µM in assay [2] and in assay [3] was less than 50% in each case. The IC50 in assay [4] is less than 100 nM; in assay [5], greater than 12500 nM.

`CNc1cc(-c2cn(CCN3CCOCC3)c3ncccc23)nc2c(C(=O)N[C@H]3CC[C@@H]3OC)cnn12` [I-886] yielded a Kd in assay [1] of less than 0.2 nM. Besides, the inhibition at 10 µM in assay [2] and in assay [3] was less than 50% throughout. In addition, the IC50 in assay [4] is less than 100 nM; in assay [5] it was greater than 300 nM.

Take `CNC(=O)c1occc1Nc1cc(NC)n2ncc(C(=O)NC3CC3)c2n1` [I-887]: in assay [1], the Kd is less than 0.2 nM. Further, the inhibition at 10 µM in assay [2] and in assay [3] was less than 50% in each case. Moreover, the concentration for half-maximal inhibition (IC50) in assay [4] is less than 100 nM; in assay [5], greater than 50000 nM.

Compound `CNC(=O)c1occc1Nc1cc(NC)n2ncc(C(=O)N[C@@H]3C[C@@H]3F)c2n1` [I-888, N-((1R,2S)-2-fluorocyclopropyl)-7-(methylamino)-5-((2-(methylcarbamoyl)furan-3-yl)amino)pyrazolo[1,5-a]pyrimidine-3-carboxamide] gave a dissociation constant Kd in assay [1] of less than 0.2 nM. In addition, the inhibition at 10 µM in assay [2] and in assay [3] was less than 50% throughout. Further, the IC50 was less than 100 nM in assay [4] and greater than 50000 nM in assay [5].

Turning to `CNc1cc(Nc2cccn3ccnc23)nc2c(C(=O)NC3CC3)cnn12` [I-891], in assay [1], the Kd is less than 0.2 nM. Moreover, the inhibition at 10 µM in assay [2] and in assay [3] was less than 50% in each case. Further, the IC50 in assay [4] is less than 100 nM; in assay [5] it was greater than 50000 nM.

Consider `CNc1cc(Nc2cccn3ccnc23)nc2c(C(=O)N[C@@H]3C[C@@H]3F)cnn12` [I-892], for which, in assay [1], the Kd is less than 0.2 nM. For the same compound, the inhibition at 10 µM in assay [2] and in assay [3] was less than 50% in each case. Moreover, the results for the IC50 in assay [4] and in assay [5] were less than 100 nM and greater than 12500 nM, respectively.

With `CNC(=O)c1nscc1Nc1cc(NC)n2ncc(C(=O)N[C@@H]3C[C@@H]3F)c2n1` [I-914], the Kd in assay [1] was less than 0.2 nM. In addition, the inhibition at 10 µM in assay [2] and in assay [3] was less than 50% each time. Further, the IC50 was less than 100 nM in assay [4] and greater than 50000 nM in assay [5].

In assay [1], `CNc1cc(Nc2cccn(C(C)C)c2=O)nc2c(C(=O)N[C@@H]3CC[C@H]3O)cnn12` [I-918] returned a Kd of less than 0.2 nM. Also, the inhibition at 10 µM in assay [2] and in assay [3] was less than 50% each time. Moreover, the IC50 in assay [4] was less than 100 nM; in assay [5], greater than 50000 nM.

Turning to `CNc1cc(Nc2cc(Cl)cn(C3CCN(C)CC3)c2=O)nc2c(C(=O)N[C@@H]3CC[C@H]3O)cnn12` [I-930], in assay [1], the Kd was less than 0.2 nM. Also, the inhibition at 10 µM in assay [2] and in assay [3] was less than 50% in each case. The results for the IC50 in assay [4] and in assay [5] were less than 100 nM and greater than 50000 nM, respectively.

In assay [1], `CNc1cc(Nc2cccn([C@@H]3CCC[C@H](OC)C3)c2=O)nc2c(C(=O)NCC(C)(C)CO)cnn12` [I-951] registered a Kd of less than 0.2 nM. The inhibition at 10 µM in assay [2] and in assay [3] was less than 50% throughout. The IC50 in assay [4] is less than 100 nM; in assay [5] it was greater than 50000 nM.
